Results reported in article PMC8364251 (Pharmacological Research, 2021).
“Also recorded” adds a separate entry of the source.

Key:
[1] = test system: SARS-CoV-2-pseudotyped lentivirus; assay type: cell-based; conditions: concentrations up to 100 μM
RBD-ACE2 binding = RBD-ACE2 binding (Severe acute respiratory syndrome coronavirus 2, UniProt P0DTC2); assay: ELISA ACE2:SARS-CoV-2 Spike inhibitor screening assay; conditions: 25–200 μM compounds
SARS-CoV-2 [2] = assay: Authentic SARS-CoV-2 CPE reduction assay in Vero E6 cells; assay type: cell-based
SARS-CoV-2 [3] = assay: Plaque formation assay; conditions: Vero E6
HEK293 = assay type: cell-based, human; conditions: HEK293 cells
authentic SARS-CoV-2 = conditions: cited from earlier work
RBD = RBD (Severe acute respiratory syndrome coronavirus 2, UniProt P0DTC2); conditions: streptavidin probes; cited from earlier work
Spike-RBD protein = Spike-RBD protein (Severe acute respiratory syndrome coronavirus 2, UniProt P0DTC2); assay type: binding, SARS-CoV-2; conditions: BLI screening
human ACE2 = human ACE2 (Homo sapiens, UniProt Q9BYF1); assay type: binding
Ebola virus = conditions: cited from earlier work
[4] = 200 and 300 mg/kg/day oral, 7 days
H1N1 influenza virus = conditions: cited from earlier work
zika virus = conditions: cited from earlier work
HIV-1 protease = conditions: cited from earlier work

Sequence of human ACE2 (Q9BYF1 18-805): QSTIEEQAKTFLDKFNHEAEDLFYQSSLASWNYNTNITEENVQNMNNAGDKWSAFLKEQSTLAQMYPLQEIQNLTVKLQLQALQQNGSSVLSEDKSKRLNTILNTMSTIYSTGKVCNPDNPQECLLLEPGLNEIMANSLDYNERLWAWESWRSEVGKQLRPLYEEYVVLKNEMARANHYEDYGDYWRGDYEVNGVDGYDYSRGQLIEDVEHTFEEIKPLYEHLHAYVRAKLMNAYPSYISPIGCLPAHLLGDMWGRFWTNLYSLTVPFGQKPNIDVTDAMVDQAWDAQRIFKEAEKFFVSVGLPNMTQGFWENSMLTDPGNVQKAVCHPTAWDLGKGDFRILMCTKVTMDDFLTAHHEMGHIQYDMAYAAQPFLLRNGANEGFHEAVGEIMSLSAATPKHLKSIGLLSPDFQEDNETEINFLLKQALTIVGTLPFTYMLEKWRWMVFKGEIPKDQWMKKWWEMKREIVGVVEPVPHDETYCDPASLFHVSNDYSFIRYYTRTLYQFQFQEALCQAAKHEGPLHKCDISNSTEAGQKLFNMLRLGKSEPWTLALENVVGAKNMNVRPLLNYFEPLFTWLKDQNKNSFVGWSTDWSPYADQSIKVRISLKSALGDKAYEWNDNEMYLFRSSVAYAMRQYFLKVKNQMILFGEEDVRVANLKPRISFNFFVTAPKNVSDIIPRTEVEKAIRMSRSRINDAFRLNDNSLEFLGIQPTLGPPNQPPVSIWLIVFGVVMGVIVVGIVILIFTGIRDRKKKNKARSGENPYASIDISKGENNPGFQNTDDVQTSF

O=C(/C=C/c1ccc(O)c(O)c1/C=C/c1ccc(O)c(O)c1)O[C@H](Cc1ccc(O)c(O)c1)C(=O)O [SalA, salvianolic acid A]
inhibition of pseudovirus entry [1]: weakly inhibited pseudovirus entry
activity in ELISA (inhibition of RBD-ACE2 binding) (RBD-ACE2 binding): high activities
inhibition of SARS-CoV-2-induced cytopathic effect (SARS-CoV-2 [2]): effective
inhibition of plaque formation (SARS-CoV-2 [3]): effective

COc1ccc(C[C@@H]2c3cc(Oc4cc(C[C@@H]5c6cc(O)c(OC)cc6CCN5C)ccc4O)c(OC)cc3CCN2C)cc1 [Isl, isoliensinine]
activity in ELISA (inhibition of RBD-ACE2 binding) (RBD-ACE2 binding): high activities
cytotoxicity (HEK293): toxicity
inhibition of plaque formation (SARS-CoV-2 [3]): inhibited plaque formation
effect against authentic SARS-CoV-2 (authentic SARS-CoV-2): effective against authentic SARS-CoV-2

C[C@H]1CC[C@@]2(OC1)O[C@H]1C[C@H]3[C@@H]4CC[C@@H]5C[C@@H](O[C@@H]6O[C@H](CO)[C@H](O)[C@H](O)[C@H]6O[C@@H]6O[C@H](CO)[C@@H](O)[C@H](O)[C@H]6O)CC[C@]5(C)[C@H]4CC[C@]3(C)[C@H]1[C@@H]2C [TimA, timosaponin A III]
activity in ELISA (inhibition of RBD-ACE2 binding) (RBD-ACE2 binding): almost inactive

O=C(/C=C/c1ccc(O)c2oc(-c3ccc(O)c(O)c3)cc12)O[C@H](Cc1ccc(O)c(O)c1)C(=O)O [SalC, Salvianolic acid C]
binding activity to RBD measured by BLI (RBD): weak binding activity to RBD
Kd (Spike-RBD protein): 6.2 µM

O=C(/C=C/c1ccc(O)c(O)c1)OC[C@H]1O[C@@H](OCCc2ccc(O)c(O)c2)[C@H](O)[C@@H](O)[C@@H]1O [CalB, calceolarioside B]
activity in ELISA (inhibition of RBD-ACE2 binding) (RBD-ACE2 binding): weakly active

CC(C)=CCc1c(O)ccc(C(=O)/C=C/c2ccc(O)cc2)c1O [Ibvc, isobavachalcone]
inhibition of pseudovirus entry [1]: effectively inhibited pseudovirus entry
activity in ELISA (inhibition of RBD-ACE2 binding) (RBD-ACE2 binding): weakly active; also recorded: lacked activity
inhibition of SARS-CoV-2-induced cytopathic effect (SARS-CoV-2 [2]): effective
binding to ACE2 in BLI (human ACE2): bound to ACE2 receptor
inhibition of plaque formation (SARS-CoV-2 [3]): effective

COc1ccc2cc1Oc1ccc(cc1)C[C@H]1c3c(cc4c(c3Oc3cc5c(cc3OC)CCN(C)[C@@H]5C2)OCO4)CCN1C [Ceph, cepharanthine]
activity in ELISA (inhibition of RBD-ACE2 binding) (RBD-ACE2 binding): almost inactive
effect against authentic SARS-CoV-2 (authentic SARS-CoV-2): effective against authentic SARS-CoV-2

CC(C)=CCc1cc2c(cc1O)O[C@H](c1ccc(O)cc1)CC2=O [Bvc, bavachin]
activity in ELISA (inhibition of RBD-ACE2 binding) (RBD-ACE2 binding): high activities
effect against authentic SARS-CoV-2 (authentic SARS-CoV-2): effective against authentic SARS-CoV-2

O=C(O[C@@H]1Cc2c(O)cc(O)cc2O[C@@H]1c1cc(O)c(O)c(O)c1)c1cc(O)c(O)c(O)c1 [EGCG, epigallocatechin gallate]
EC50 (Ebola virus): 50 µM
body weights [4]: no adverse effect
survival [4]: no adverse effect
organ weights ([4]; liver, kidney, lung, spleen, thymus): no adverse effect
EC50 (H1N1 influenza virus): 22 to 28 µM
inhibition of pseudovirus entry [1]: effectively inhibited pseudovirus entry
activity in ELISA (inhibition of RBD-ACE2 binding) (RBD-ACE2 binding): high activities
inhibition of SARS-CoV-2-induced cytopathic effect (SARS-CoV-2 [2]): effective
binding to ACE2 in BLI (human ACE2): bound to ACE2 receptor
EC50 (zika virus): 21.4 µM
inhibition of plaque formation (SARS-CoV-2 [3]): effective
IC50 (HIV-1 protease): 50 to 100 µM

C=C[C@@](C)(/C=C/c1ccc(O)cc1)CCC=C(C)C [Bkc, bakuchiol]
inhibition of pseudovirus entry [1]: effectively inhibited pseudovirus entry
activity in ELISA (inhibition of RBD-ACE2 binding) (RBD-ACE2 binding): weakly active; also recorded: lacked activity
binding to ACE2 in BLI (human ACE2): bound to ACE2 receptor

bavachinin [Bvcn]
activity in ELISA (inhibition of RBD-ACE2 binding) (RBD-ACE2 binding): high activities
